From patent publication US11981919B2, “Methods for forming three-dimensional human retinal tissue in vitro” (THE JOHNS HOPKINS UNIVERSITY, priority 2014, dated 2024) come the findings set out here.

Assay [1] deals with CB-iPSC6.2-derived retinal cups (RCs). Briefly: Retinoic acid treatment of hiPSC-derived retinal cups, rod-opsin expression by immunohistochemistry. The format is cell-based, human. The settings on record: for rod-opsin expression (qualitative, microscopic observation): 3 independent experiments. As for the experimental part:
(§1) To promote photoreceptor maturation, suspension cultures of RCs were supplemented daily with 1 μM all-trans retinoic acid (RA; Sigma) at various time windows: W7-W17; W7-W14 or W10-W14; subsequently, RA concentration was decreased to 0.5 μM.
(§2) RCs were fixed in 4% PFA for 30 min. […] DAPI was used for nuclear counterstaining (Molecular Probes).

Assay [2] concerns KA.1- and IMR90-4-derived RCs. The description is as above. The settings on record: RA treatment in W10-W14. The format is cell-based, human. The procedure: as §1, §2

Take `CC1=C(/C=C/C(C)=C/C=C/C(C)=C/C(=O)O)C(C)(C)CCC1` [retinoic acid, all-trans retinoic acid]: the “rod-opsin expression (qualitative, microscopic observation)” value was “dispersed cells with strong rod-opsin expression in their cell bodies already at W17” in assay [1] (1 μM RA during W10-W14, W17 and W21); “low levels of rod-opsin expression in the distal part of photoreceptor cells” in assay [1] (1 μM RA in W7-W14); “induction of rod-opsin expression was also observed, although at a later time and less efficiently than in CB-iPSC6.2-derived RCs” in assay [2]. The “retinal cups showing dispersed cells with higher rod-opsin expression, also in cell bodies” value in assay [1] (1 μM retinoic acid W10-W14, evaluated at W17, n=8) is approximately 50%. Also, in assay [1] (1 μM retinoic acid W10-W14, evaluated by W21, n=20), the “retinal cups showing a significant increase in the number of photoreceptors expressing rod opsin” value is reported as 90%.
